Structures are written as SMILES. In brackets after ≈: the same amount, converted by molar mass.

The test system of one experiment is Rhizoctonia solani. As to the kind of experiment: Antifungal activity against Rhizoctonia solani. The experiment is classed as functional, organism-based.
Experiment [1] relates to Colletotrichum gloeosporioides. As to the kind of experiment: Antifungal activity against Colletotrichum gloeosporioides. Format: functional.
A further experiment deals with Cytospora mali. The experiment is described as follows: Antifungal activity against Valsa mali. The experiment is classed as functional.
The test system of a further experiment is Alternaria brassicae. As to the kind of experiment: Antifungal activity against Alternaria brassicae. The experiment is classed as functional.
The subject of another experiment is Alternaria alternata. The experiment is described as follows: Antifungal activity against Alternaria alternata. The experiment is classed as functional.
A further experiment has as its system Sclerotinia sclerotiorum. As to the kind of experiment: Antifungal activity against Sclerotinia sclerotiorum. Format: functional, organism-based.
The test system of the next experiment is Alternaria solani. The experiment is described as follows: Antifungal activity against Alternaria solani relative to control. The experiment is classed as functional. Further details: concentration or dose not given beside the values.
The subject of another experiment is Bipolaris maydis. As to the kind of experiment: Antifungal activity against Bipolaris maydis relative to control. Format: functional. Also on record: concentration or dose not given beside the values.
The subject of experiment [2] is Sclerotinia. As to the kind of experiment: Antifungal activity against sunflower Sclerotinia rot at 50 ug/ml relative to control. Format: functional. The following applies: dose 50 µg/ml.
Experiment [3] deals with Fusarium solani. As to the kind of experiment: Antifungal activity against Fusarium solani. Format: functional, organism-based.
Another experiment has as its system Gaeumannomyces graminis. The experiment is described as follows: Antifungal activity against Gaeumannomyces graminis. Format: functional, organism-based.
The test system of a further experiment is Candida albicans. The experiment is described as follows: Antifungal activity against Candida albicans incubated for 72 hrs. Format: functional.
For experiment [4], the system named is Trichophyton interdigitale. As to the kind of experiment: Antifungal activity against Trichophyton interdigitale. Format: functional.
Experiment [5] concerns Sclerotinia. As to the kind of experiment: Antifungal activity against rape Sclerotinia rot at 50 ug/ml relative to control. Format: functional.
A further experiment relates to Curvularia lunata. The experiment is described as follows: Antifungal activity against Curvularia lunata. Format: functional, organism-based.
Experiment [6] has as its system Fusarium solani. As to the kind of experiment: Antifungal activity against Fusarium solani incubated for 72 hrs. Format: functional, organism-based.

In the experiment on Rhizoctonia solani, `OCC1=C[C@H](N[C@H]2C[C@H](CO)[C@@H](O[C@@H]3O[C@H](CO)[C@@H](O)[C@H](O)[C@H]3O)[C@H](O)[C@H]2O)[C@H](O)[C@@H](O)[C@@H]1O` [VALIDAMYCIN] returned an EC50 of 198 mg/L (≈ 397 µM).
Regarding `O=C1[C@@H]2Cc3c([nH]c4ccccc34)C(c3ccc([N+](=O)[O-])cc3)N2C(=O)[C@@H]2CCCN12` (stereo not given in full), the MIC in [1] came out at 6.25 mg/L (≈ 15 µM); in the experiment on Cytospora mali, 12.5 mg/L (≈ 30 µM); with Alternaria brassicae, 12.5 mg/L (≈ 30 µM); in the experiment with Alternaria alternata it was 12.5 mg/L (≈ 30 µM).
As to `O=C1[C@@H]2Cc3c([nH]c4ccccc34)C(c3ccc(O)cc3)N2C(=O)[C@@H]2CCCN12` (stereo not given in full), the MIC is 12.5 mg/L (≈ 32.3 µM) in experiment [1], 12.5 mg/L (≈ 32.3 µM) in the experiment on Cytospora mali, 6.25 mg/L (≈ 16.1 µM) against Alternaria brassicae and 12.5 mg/L (≈ 32.3 µM) in the experiment with Alternaria alternata.
Compound `c1ccc(-c2nc(-c3nnc(C4CC4)o3)cc3c2[nH]c2ccccc23)cc1` had an EC50 in the experiment on Rhizoctonia solani of 4.2 mg/L (≈ 11.9 µM).
Turning to `COc1cc(C(=O)NC(=S)Nc2cc3c([nH]c4ccccc43)c(-c3cc(OC)c(OC)c(OC)c3)n2)cc(OC)c1OC`, the midpoint of the response in the experiment with Rhizoctonia solani, the EC50, lay at 293 mg/L (≈ 486 µM).
For `CC(C)[C@@H]1COC(c2nccc3c2[nH]c2ccccc23)=N1`, in the experiment with Sclerotinia sclerotiorum, the midpoint of the response, the EC50, lay at 15.5 µM.
Regarding `Cc1nc(C(=O)O)cc2c1[nH]c1ccccc12` [HARMAN-3-CARBOXYLIC ACID], the Activity in the experiment with Alternaria solani is 33.3%; in the experiment on Bipolaris maydis it was 21.1%.
With `Cc1nccc2c3ccccc3n(Cc3cn(-c4ccncc4)nn3)c12`, the Activity in the experiment with Sclerotinia [2] is 84.47%.
The compound `Cc1ccccc1[N+]1=Cc2c(c3ccccc3n2C)CC1` registered an EC50 with Fusarium solani [3] of 2.35 µM.
Take `Cc1ccc2c(c1)c1c(n2C)C=[N+](c2ccc(Cl)cc2)CC1`: the EC50 in the experiment with Fusarium solani [3] came out at 2.68 µM.
In turn, `CC(C)c1nc(C(N)=O)cc2c1[nH]c1ccccc12` registered an EC50 in the experiment on Gaeumannomyces graminis of 2.85 µM.
With `COc1ccc2c(c1)[nH]c1c(C)nccc12` [HARMINE], the Activity was 15.7% with Alternaria solani and 22.7% in the experiment on Bipolaris maydis. In addition, in the experiment with Candida albicans, the MIC stood at 500 mg/L (≈ 2360 µM).
The compound `COC(=O)c1cc2c([nH]c3ccccc32)c(C(=O)OC)n1` came in with an EC50 with Gaeumannomyces graminis of 1.16 µM.
`CCCCCCCCc1nccc2c1[nH]c1ccccc12` had an MIC in experiment [4] of 3.2 mg/L (≈ 11.4 µM).
Turning to `COc1ccc(C2c3[nH]c4ccccc4c3C[C@H]3C(=O)N4CCC[C@H]4C(=O)N23)cc1` (stereo not given in full), the MIC in experiment [1] came to 6.25 mg/L (≈ 15.6 µM); in the experiment on Cytospora mali, 12.5 mg/L (≈ 31.1 µM); in the experiment with Alternaria brassicae, 12.5 mg/L (≈ 31.1 µM); in the experiment on Alternaria alternata it was 12.5 mg/L (≈ 31.1 µM).
Consider `CC[C@@H]1COC(c2nccc3c2[nH]c2ccccc23)=N1`, for which the EC50 with Sclerotinia sclerotiorum was 22.4 µM.
In [4], `CC(C)CCc1nccc2c1[nH]c1ccccc12` yielded an MIC of 50 mg/L (≈ 210 µM).
On to `Cc1nccc2c1[nH]c1cc(O)ccc12`, for which the Activity in the experiment with Alternaria solani was found to be 26.3%; in the experiment on Bipolaris maydis, 31.8%.
`Fc1ccc(Cn2c3ccccc3c3ccnc(-c4nc5ccccc5[nH]4)c32)cc1`: the Activity in the experiment on Sclerotinia [5] (dose 50 µg/ml) came out at 79.89%.
With `O=C(O)c1cc2c([nH]c3ccccc32)c(-c2ccsc2)n1`, the midpoint of the response in the experiment on Sclerotinia sclerotiorum, the EC50, lay at 11.9 µM.
Compound `CCC(C)Cc1nccc2c1[nH]c1ccccc12` (stereo not given) returned an MIC in experiment [4] of 50 mg/L (≈ 210 µM).
Regarding `C#CCn1c2ccccc2c2cc(C)ncc21`, in the experiment on Curvularia lunata, the EC50 was determined as 6.73 mg/L (≈ 30.6 µM).
With `c1ccc2[nH]c(-c3cscn3)nc2c1` [THIABENDAZOLE], the EC50 in the experiment with Fusarium solani [6] (Fusarium solani, 72 h) is 12.5 µM. Besides, in the experiment on Fusarium solani [6] (time 72 hrs), the “inhibition (INH)” value was 89.3%.
As for `c1ccc([C@@H]2COC(c3nccc4c3[nH]c3ccccc34)=N2)cc1`, the midpoint of the response in the experiment with Sclerotinia sclerotiorum, the EC50, lay at 17.3 µM.
On to `COc1ccc(-c2nc(NC(=O)NC(=O)c3c(F)cccc3F)cc3c2[nH]c2ccccc23)cc1`, for which the concentration for a half-maximal effect (EC50) with Rhizoctonia solani worked out at 277 mg/L (≈ 586 µM).
Turning to `Cc1nccc2c1[nH]c1cc(OC(=O)C(C)(C)C)ccc12`, the Activity in the experiment on Alternaria solani is 66.7%; with Bipolaris maydis it was 78.9%.
Compound `COc1cc(-c2nc(NC(=O)Nc3ccc(C(F)(F)F)cc3)cc3c2[nH]c2ccccc23)cc(OC)c1OC` returned an EC50 with Rhizoctonia solani of 281 mg/L (≈ 524 µM).
Consider `CCCCCc1nccc2c1[nH]c1ccccc12`, for which the lowest concentration to inhibit growth in experiment [4] (MIC) was 50 mg/L (≈ 210 µM).
In the case of `c1ccc(C[C@@H]2COC(c3nccc4c3[nH]c3ccccc34)=N2)cc1`, the EC50 in the experiment on Sclerotinia sclerotiorum was determined as 12 µM.
`Cc1ccc2c(c1)c1c(n2C)C=[N+](c2ccccc2C)CC1` displayed an EC50 with Fusarium solani [3] of 3.47 µM.
In the experiment on Sclerotinia sclerotiorum, `CC(C)(C)[C@@H]1COC(c2nccc3c2[nH]c2ccccc23)=N1` registered an EC50 of 13 µM.
On to `CC(C)C1c2[nH]c3ccccc3c2C[C@H]2C(=O)N3CCC[C@H]3C(=O)N12` (stereo not given in full), for which the MIC (in experiment [1]; against Cytospora mali; against Alternaria brassicae; against Alternaria alternata) was 12.5 mg/L (≈ 37 µM) each time.
For the compound `Cc1cccc([N+]2=Cc3c(c4cc(C)ccc4n3C)CC2)c1`, it took 2.67 µM to reach a half-maximal effect in the experiment with Fusarium solani [3] (EC50).
Turning to `CO/C=C(/C(=O)OC)c1ccccc1Oc1cc(Oc2ccccc2C#N)ncn1` [AZOXYSTROBIN], at 50 µg/mL the inhibition in the experiment on Sclerotinia [5] (Sclerotinia) was 88.5%. Further, the Activity with Sclerotinia [2] amounted to 88.07%.
For `NC(=O)c1cc2c([nH]c3ccccc32)c(-c2ccccn2)n1`, the EC50 in the experiment with Gaeumannomyces graminis was determined as 2.85 µM.
`COc1cc(-c2nc(NC(=O)NC(=O)c3c(F)cccc3F)cc3c2[nH]c2ccccc23)cc(OC)c1OC` returned an EC50 in the experiment on Rhizoctonia solani of 131 mg/L (≈ 246 µM).

Usually EC50 stands for the concentration giving half of the maximal effect. As a reminder, the MIC is the smallest concentration in the dilution series that meets the test's criterion for growth inhibition. What is called inhibition is the change of the read-out against control, counted positive when it falls.

The record behind these values is ChEMBL document CHEMBL5136985, “Natural and synthetic β-carboline as a privileged antifungal scaﬀolds” (Eur J Med Chem, 2022).
